Results published in patent US20250170127A1, “RE-SENSITIZING MULTIDRUG-RESISTANT (MDR) GRAM-NEGATIVE BACTERIA TO COLISTIN USING IONOPHORES” (The Regents of the University of Colorado, a body corporate, priority 2022, published 2025).

How the values were obtained:
[1] = tested on: Salmonella Typhimurium AR-0539; assay: Colistin MIC in the absence or presence of RMA compound; assay type: cell-based; details: for Colistin MIC (+ compound): in the presence of 1 μg/mL of compound indicated, S. Typhimurium AR-0539
Experimental: (§1) To evaluate the mammalian toxicity of these analogs, Applicants tested them in cell viability assay using human cervical adenocarcinoma HeLa cells. Their respective half maximal growth inhibition concentration (GI50) was calculated using KaleidaGraph. The selectivity index (SI) for each compound was also calculated as the ratio of their GI50 and MRC. […] Therefore, Applicants selected two bisanilino analogs, 7l and 7m, that bear chlorines at the meta- and para-positions, respectively, of the phenyl groups for further characterization studies. […]. […] Their mammalian toxicities were also evaluated, and SIs calculated. […] Applicants we next explored the scope of analogs 71 and 7m their colistin-potentiating activity in 8 different MDR Gram negative bacteria with diverse genetic backgrounds and resistance mechanisms (Table 7). All strains were obtained from CDC and FDA Antibiotic Resistance Bank. For example, E. coli AR-0493 and K. pneumoniae AR-0497 carry the plasmid that contains the most prevalent mcr-1 gene. E. coli AR-0538, Salmonella Typhimurium AR-0539 and AR-0635 contain the mcr-2, 3, and 4 genes, respectively. These genes encode the phosphoethanolamine transferase, which was originated form the chromosome of A. baumannii, such as AR-0310. […]. A. baumannii AR-0310 appears more sensitive to these two compounds and the MICs of colistin was reduced to 0.25 μg/mL.

[2] = tested on: P. aeruginosa AR-0239; assay: as above; assay type: cell-based; details: for fold reduction of colistin MIC: 1 μg/mL of compound; for Colistin MIC (+ compound): in the presence of 1 μg/mL of compound indicated
Experimental: as §1

[3] = tested on: P. aeruginosa AR-0257; assay: as above; assay type: cell-based; details: for fold reduction of colistin MIC: 1 μg/mL of compound; for Colistin MIC (+ compound): in the presence of 1 μg/mL of compound indicated
Experimental: as §1

[4] = tested on: Salmonella Typhimurium AR-0635; assay: as above; assay type: cell-based; details: for Colistin MIC (+ compound): in the presence of 1 μg/mL of compound indicated, S. Typhimurium AR-0635; for Colistin MIC: colistin alone
Text: (§2) To investigate the scope of the colistin-potentiation effect of compound 3, the present inventors screened a panel of MDR Gram-negative bacteria obtained from the CDC and FDA Antibiotic Resistance Bank. These include a variety of Enterobacteriaceae spp., such as E. coli AR-0346 and AR-0538, K. pneumoniae AR-0497, Salmonella Enteritidis AR-0496, and Salmonella Typhimurium AR-0635. These strains all express the mcr genes (e.g., mcr-1, mcr-2, and mcr-4) and are resistant to colistin with its MICs of 8-16 μg/mL (Table 2). […] The only exception is Salmonella Typhimurium AR-0635, which expresses mcr-4 gene. […]. […]. Furthermore, the present inventors also tested the activity of colistin in the presence or absence of 1 μg/mL compound 3 in a wild-type E. coli K-12. […] The MICs of compound 3 in all these strains were >64 μg/mL, the highest concentration tested.
as §1
(§3) General Methods. MDR strains E. coli AR-0493, AR-0346, and AR-0538, Salmonella Enteritidis AR-0496, Salmonella Typhimurium AR-0635, K. pneumoniae AR-0497, A. baumannii AR-0300 and AR-0310 were all obtained from the CDC & FDA Antibiotic Resistance Isolate Bank. E. coli K-12 was a gift from the Copley lab (Department of MCD Biology, University of Colorado Boulder). HeLa cells were purchased from the ATCC. All bacterial strains were grown on trypticase soy agar supplemented with 5% sheep blood (BAP). Bacteria were then cultured in Luria-Bertani (LB) medium at 35° C. until they achieve the log phase before screening or antimicrobial testing using CAMHB media. MIC, MRC, and checkerboard analyses and mammalian growth inhibition analyses in Hela cells were performed as described previously. More details are given in Supporting information.

[5] = tested on: A. baumannii AR-0310; assay: as above; assay type: cell-based; details: for Colistin MIC (+ compound): in the presence of 1 μg/mL of compound indicated; for Colistin MIC: colistin alone
Text: as §2, §1, §3

[6] = tested on: K. pneumoniae AR-0497; assay: as above; assay type: cell-based; details: for Colistin MIC (+ compound): in the presence of 1 μg/mL of compound indicated, K. pneumoniae AR-0497; for Colistin MIC: colistin alone, K. pneumoniae AR-0497, mcr-1
Text: as §2, §1, §3

[7] = tested on: E. coli AR-0538; assay: as above; assay type: cell-based; details: for Colistin MIC (+ compound): in the presence of 1 μg/mL of compound indicated, E. coli AR-0538; for Colistin MIC: colistin alone, E. coli AR-0538, mcr-2
Text: as §2, §1, §3

[8] = tested on: E. coli AR-0493; assay: as above; assay type: cell-based; details: for Colistin MIC (+ compound): in the presence of 1 μg/mL of compound indicated, E. coli AR-0493; for Colistin MIC: colistin alone, E. coli AR-0493, mcr-1
Text: as §2, §1, §3

[9] = tested on: E. coli AR-0493; assay: Minimum re-sensitizing concentration (MRC) in the presence of colistin; assay type: cell-based; details: in the presence of 2 μg/mL colistin, E. coli AR-0493
Experimental: These 10 compounds were tested for their MICs and minimum re-sensitizing concentrations (MRCs) in the presence colistin at 2 μg/mL in E. coli AR-0493.
The present inventors further conducted MRC screens of selected compounds from groups 2-5 in AR-0493. Compound were tested against AR-0493 with compound X+2 μg/mL Colistin.
All compounds were tested for their respective minimum resensitizing concentrations (MRCs) for colistin against E. coli. AR0493, a MDR strain from CDC and FDA Antibiotic Resistance Bank. […] For the symmetrical bisanilino series, 7a-p, electron-donating alkyl and alkoxy groups (entries 7a-g, Table 5) at various positions of the phenyl rings were investigated. […] Three asymmetric bisanilino analogs (7q-s, Table 5) were synthesized based on the SARs of the monoanilino analogs 8a-p (vide infra).
as §3

[10] = tested on: HeLa cells; assay: in vitro; assay type: cell-based, human
Experimental: (§4) These 10 compounds were tested for their MICs and minimum re-sensitizing concentrations (MRCs) in the presence colistin at 2 μg/mL in E. coli AR-0493. […] To evaluate their toxicity in mammalian cells, the present inventors treated human epithelial adenocarcinoma HeLa cells with each compound at a wide range of concentrations.
as §1, §3

[11] = tested on: E. coli AR-0493; assay: MIC, CLSI broth microdilution, substance alone; assay type: cell-based
Experimental: A MDR E. coli strain AR-0493 (a.k.a., ATCC BAA-3170) was obtained from the CDC and FDA Antibiotic Resistance Bank and used for the initial screen. […] Considering the difficulties on the discovery of novel antimicrobial reagents against Gram-negative bacteria, we chose to screen the fragment-based library of 3,200 compounds from TimTec (Tampa, FL). […] The screen used a modified broth microdilution assay.
as §4, with “concentrations. […]” for “concentrations.”
as §3

[12] = tested on: mitochondria; details: previously reported; in vitro and in mice; cited from earlier work
[13] = tested on: E. coli AR-0346; assay: Colistin MIC in the absence or presence of RMA compound; assay type: cell-based; details: colistin alone; E. coli AR-0346, mcr-1
Text: as §2, §3

[14] = tested on: E. coli K-12; assay: as above; assay type: cell-based; details: colistin alone; wild-type E. coli K-12
Text: as §2, §3

[15] = tested on: A. baumannii AR-0300; assay: as above; assay type: cell-based; details: colistin alone
Text: as §2, §3

[16] = tested on: Salmonella Enteritidis AR-0496; assay: as above; assay type: cell-based; details: colistin alone; Salmonella Enteritidis AR-0496, mcr-1
Text: as §2, §3

[17] = tested on: MDR Gram-negative bacteria; assay: MICs across a panel of MDR Gram-negative bacteria (summary statements); assay type: cell-based; details: colistin alone
Text: as §2, §1, §3

[18] = tested on: E. coli AR-0349; assay: MICs of a panel of 9 antibiotics with and without compound 3; assay type: cell-based
[19] = tested on: P. aeruginosa AR-0768; assay: Colistin MIC in the absence or presence of RMA compound; assay type: cell-based; details: colistin alone
Text: as §2

Clc1cccc(Nc2nc3nonc3nc2Nc2cccc(Cl)c2)c1 [Compound 7l]
Colistin MIC (+ compound) [1]: 1 µg/mL | fold reduction of colistin MIC [2]: 4 folds | Colistin MIC (+ compound) [2]: 1 µg/mL | fold reduction of colistin MIC [3]: 4 folds | Colistin MIC (+ compound) [3]: 2 µg/mL | Colistin MIC (+ compound) [4]: 1 µg/mL | Colistin MIC (+ compound) [5]: 0.25 µg/mL | Colistin MIC (+ compound) [6]: 1 µg/mL | Colistin MIC (+ compound) [7]: 1 µg/mL | Colistin MIC (+ compound) [8]: 1 µg/mL | MRC (minimum re-sensitizing concentration) [9]: 0.25 µg/mL | GI50 [10]: 1.1 µg/mL | MIC [11]: >64 µg/mL

Clc1ccc(Nc2nc3nonc3nc2Nc2ccc(Cl)cc2)cc1 [Compound 7m]
Colistin MIC (+ compound) [1]: 2 µg/mL | fold reduction of colistin MIC [2]: 4 folds | Colistin MIC (+ compound) [2]: 1 µg/mL | fold reduction of colistin MIC [3]: 4 folds | Colistin MIC (+ compound) [3]: 2 µg/mL | Colistin MIC (+ compound) [4]: 1 µg/mL | Colistin MIC (+ compound) [5]: 0.25 µg/mL | Colistin MIC (+ compound) [6]: 1 µg/mL | Colistin MIC (+ compound) [7]: 2 µg/mL | Colistin MIC (+ compound) [8]: 1 µg/mL | MRC (minimum re-sensitizing concentration) [9]: 0.5 µg/mL | GI50 [10]: 2.8 µg/mL | MIC [11]: >64 µg/mL

FC(F)(F)Oc1ccc(Nc2nc3nonc3nc2Nc2ccc(OC(F)(F)F)cc2)cc1 [Compound 7p]
mitochondrial uncoupler activity [12]: poor uncoupler | MRC (minimum re-sensitizing concentration) ([9]; listed as 57p): 0.25 µg/mL | GI50 [10]: 5.7 µg/mL | MIC [11]: >64 µg/mL

Oc1nc2nonc2nc1Nc1ccc(OC(F)(F)F)cc1 [Compound 8p]
mitochondrial uncoupler activity [12]: one of the most potent uncouplers

Colistin [reference compound]
Colistin MIC [13]: 8 µg/mL | Colistin MIC [14]: 0.25 µg/mL | Colistin MIC [15]: 8 µg/mL | Colistin MIC [16]: 16 µg/mL | Colistin MIC ([1]; colistin alone, S. Typhimurium AR-0539, mcr-3): 8 µg/mL | Colistin MIC ([2]; colistin alone): 4 µg/mL | Colistin MIC ([3]; colistin alone): 8 µg/mL | Colistin MIC ([4]; S. Typhimurium AR-0635, mcr-4, Table 7): 32 µg/mL | Colistin MIC ([4]; Salmonella Typhimurium AR-0635, mcr-4, Table 2): 16 µg/mL | Colistin MIC ([5]; Table 2): 16 µg/mL | Colistin MIC ([5]; Table 7): 32 µg/mL | Colistin MIC ([6]; Table 2): 8 µg/mL | Colistin MIC ([6]; Table 7): 8 µg/mL | Colistin MIC ([7]; Table 2): 8 µg/mL | Colistin MIC ([7]; Table 7): 8 µg/mL | Colistin MIC ([8]; Table 2): 16 µg/mL | Colistin MIC ([8]; Table 7): 8 µg/mL | Colistin MIC ([17]; 8 MDR Gram negative strains of Table 7): 4 to 32 µg/mL | Colistin MIC ([17]; mcr-expressing Enterobacteriaceae strains of Table 2): 8 to 16 µg/mL | INT (S-R interpretation) ([18]; CLSI 2021, M100, Ed 31): R | MIC ([18]; antibiotic alone, multidrug-resistant E. coli): 16 µg/mL | fold of potentiation ([18]; by 1 μg/mL of compound 3): 16 fold | MIC (+3) ([18]; in the presence of 1 μg/mL of compound 3): 1 µg/mL | Colistin MIC [19]: 16 µg/mL | MIC [11]: 16 µg/mL
